Experimental data from patent US10730886B2, “Compound having effect of inhibiting platelet aggregation and salt thereof, and composition for preventing or treating thrombotic diseases, containing same” (SHIN POONG PHARMACEUTICAL CO., LTD., priority 2015, dated 2020).

Columns and labels:
[1] = test system: collagen-induced platelet aggregation, Human PRP; experiment: Collagen-induced platelet aggregation in human PRP (lumi-aggregometer); format: cell-based; conditions: collagen 2-5 μg/ml
Description: (§1) To investigate whether the candidate substance has inhibition selectivity for shear-stress-induced platelet aggregation, which is by a physical stimulus, […] experiment was conducted by activating platelets with physiological agonists—i.e., thrombin, collagen and ADP—to study the inhibitory effect of the candidate substance.
(§2) Human PRP (598.8 μl) was treated with 1.2 μl of the candidate substance per concentration (25, 100, 250 μM) and reacted at 37° C. for 3 minutes using a thermomixer. Then, PRP (495 μl) was put in the aggregometer cuvette and preincubated for 1 minute, followed by treatment with platelet aggregation-inducing reagent, thrombin (0.6-0.8 U/ml), collagen (2-5 μg/ml), or ADP (adenosine diphosphate, 15-20 μM) at the minimum concentration causing maximum aggregation. The degree of aggregation of the platelets was measured by a turbidity change using a lumi-aggregometer (Chrono-Log Co., USA). The turbidity of the PRP was considered as 0%, and the turbidity of the PPP was considered as 100%. During the measurement, the reaction mixture was continuously stirred at 1,000 rpm with a silicone-coated magnetic stir bar.

[2] = test system: Human Washed Platelets (WP); experiment: Shear stress-induced platelet aggregation inhibition in human washed platelets (WP); format: cell-based; conditions: for inhibited shear stress-induced platelet aggregation in WP: 10, 25, 50 μM; for inhibition at 10 µM / inhibition at 25 µM / inhibition at 50 µM: Platelet, human WP, read-out: Degree of inhibition (%, Mean ± SEM)
Description: 1-2. Measurement of Platelet Aggregation Inhibitory Effect Using Human Washed Platelets (WP)
To separate human washed platelets (WP), blood was collected from the veins of healthy males using acid-citrate-dextrose (ACD) as an anticoagulant. At the time of blood collection, platelet activation was inhibited by treatment with 1 μM of prostaglandin E1 (PGE1). The collected blood was centrifuged at 150 g for 15 minutes to obtain PRP from the supernatant, which was centrifuged at 500 g for 10 minutes to obtain platelets. The platelets were suspended in and washed with a washing buffer (134 mM NaCl, 2.9 mM KCl, 1.0 mM MgCl2.6H2O, 10.0 mM HEPES, 5.0 mM dextrose, 12.0 mM NaHCO3, 0.34 mM Na2HPO4, 10% ACD, 0.3% bovine serum albumin, 1 μM PGE1, pH 7.4), and then re-centrifuged at 400 g for 10 minutes. The platelets thus obtained were suspended in the suspension buffer. The number of platelets in WP were counted using a hemacytometer. The platelets were diluted with the suspension buffer so as to include 3×10^8 platelets per 1 ml, and CaCl2 was added to give a final concentration of 2 mM and then used in the experiments. vWF was added to WP to give a final concentration of 10 μg/ml. WP was put on a cone-plate viscometer, and shear stress was applied to the WP at 37° C. for 3 minutes at a shear rate of 10,800 s^−1. In order to evaluate efficacy of candidate substances, prior to the induction of platelet aggregation, WP was treated with 10, 25, and 50 μM of candidate substances and incubated at 37° C. for 3 minutes using a thermomixer. After applying the shear stress, 20 μl of WP was fixed in 280 μl of the suspension buffer containing 0.5% glutaraldehyde. Then, the number of single platelets in the suspension was counted using a hemacytometer. The degree of inhibition by the candidate substance was calculated according to formula (1). No shear stress-applied group served as control, and only shear stress-applied group served as a positive control.

plasma = experiment: Plasma coagulation time, Prothrombin Time (PT); format: biochemical; conditions: plasma treated 3 minutes
Description: In order to separate plasma, blood was collected with 3.2% sodium citrate as an anticoagulant. Whole blood was centrifuged at 2000 g for 20 minutes to obtain plasma. After treating the plasma with the test substances for 3 minutes, plasma coagulation time was measured. For plasma coagulation time, Activated Partial Thromboplastin Time (aPTT) and Prothrombin Time (PT) were measured using BBL® Fibrometer (Becton Dickinson, Cockeysville, Md.). For measurement of aPTT, the plasma was treated with aPTT reagents in fibrometer cup and reacted at 37° C. for 3 min. After the reaction, CaCl2 was added and blood coagulation time was measured immediately. For the measurement of PT, PT reagent was added to warmed plasma, and blood coagulation time was measured immediately. DTI, known to prolong plasma coagulation time, was used as a control.

[3] = test system: thrombin-induced platelet aggregation, Human PRP; experiment: Thrombin-induced platelet aggregation in human PRP (lumi-aggregometer); format: cell-based; conditions: thrombin 0.6-0.8 U/ml;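 also: aggregation recorded for 5 min after thrombin addition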
Description: as §1, §2

[4] = test system: iron chloride (FeCl3)-induced thrombogenesis model; experiment: Arterial thrombosis model, FeCl3-induced carotid artery thrombogenesis; format: in vivo, Sprague-Dawley rats; conditions: rat, 25 mg/kg oral; for Time of thrombogenesis: FeCl3 applied 60 min after administration, occlusion time
Description: Vehicle (DMSO: Tween 80: DW=1:2:17) or candidate substance (25 mg/kg) was orally administered to overnight-fasted male Sprague-Dawley rats (250 to 300 g). 30 minutes after administration, the rats were anesthetized by intraperitoneal injection of urethane (1.25 g/kg). The anesthetized animals were restrained on the operating table, and the body temperature was maintained using a heating pad during the entire operating procedure. An incision was made around the neck of the animals to carefully expose the right carotid artery, and the adipose tissues attached to the blood vessels were carefully removed. Doppler flow probe (0.5 mm-diameter, MA0.5PSB, Transonic System Inc., USA) was fixed to the exposed carotid artery, and a doppler flow-meter (TS420, Transonic System Inc., USA) was connected thereto. 60 minutes after oral administration, a piece of Whatman No. 1 filter paper (2 mm×1 mm) soaked with 50% FeCl3 solution was attached to the underlying blood vessels to which the probe was fixed. The filter paper was removed after 10 minutes, and the change of blood flow due to thrombus formation in the carotid artery was measured for 60 minutes after the time point of removal. The occlusion time was defined as the time at which the blood flow became zero more than one minute for the first time.

[5] = test system: human vascular endothelial cells (EA.hy926); experiment: Cytotoxicity in EA.hy926 cell line (MTT assay); format: cell-based; conditions: 24 hours
Description: 5-1. Evaluation of Cytotoxicity of Candidate Substances Using EA.hy926 Cell Line
Experiments were conducted to determine the cytotoxicity of candidate substances in human vascular endothelial cells (EA.hy926). EA.hy926 was passaged in DMEM (Dulbecco's […]) supplemented with 10% fetal bovine serum (FBS) at 5% CO2/37° C. The cells were cultured in a 96 well plate at 1×10^4 cells/well for 48 hours, washed twice with DMEM and then cultured for 24 hours. Candidate substances were prepared at final concentrations of 25 and 100 μM, applied to the wells at 200 μl per well and cultured for 24 hours. MTT assay was used to measure the absorbance at 570 nm after colorization in violet.

| SMILES | Degree of platelet aggregation (%, Mean ± SEM) ([1]; 25 μM) | Degree of platelet aggregation (%, Mean ± SEM) ([1]; 100 μM) | Degree of platelet aggregation (%, Mean ± SEM) ([1]; 250 μM) | inhibited shear stress-induced platelet aggregation in WP [2] | inhibition at 10 µM [2] | inhibition at 25 µM [2] | inhibition at 50 µM [2] | plasma coagulation time - PT, Time (plasma; 25 μM) | plasma coagulation time - PT, Time (plasma; 100 μM) | plasma coagulation time - PT, Time (plasma; 250 μM) | Degree of platelet aggregation (%, Mean ± SEM) ([3]; 25 μM) | Degree of platelet aggregation (%, Mean ± SEM) ([3]; 100 μM) | Degree of platelet aggregation (%, Mean ± SEM) ([3]; 250 μM) | Time of thrombogenesis [4] | Fold (vs. Control) ([4]; time of thrombogenesis vs. vehicle control) | Cell viability (%) ([5]; EA.hy926, 25 μM) | Cell viability (%) ([5]; EA.hy926, 100 μM) |
| --- | --- | --- | --- | --- | --- | --- | --- | --- | --- | --- | --- | --- | --- | --- | --- | --- | --- |
| COc1ccc(NC(=O)c2ccc(O)c(OC)c2)c([N+](=O)[O-])c1 [Example 15, 4-Hydroxy-3-methoxy-N-(4-methoxy-2-nitrophenyl)benzamide] | 86.0 ± 0.0% | 84.5 ± 4.5% | 83.5 ± 3.5% | in a dose-dependent manner | 14 ± 2.5% | 26 ± 4% | 36 ± 3.2% | 10.7 ± 0.0 s | 10.6 ± 0.2 s | 10.9 ± 0.1 s | 95.5 ± 3.5% | 100.5 ± 4.5% | 98.0 ± 3.0% | 816 ± 78 s | 2.3 | 100.8 ± 2.5% | 94.9 ± 3.3% |
| O=C(c1cc(O)ccc1O)N1CCc2sccc2C1 [Example 20, (6,7-Dihydrothieno[3,2-c]pyridin-5(4H)-yl)(2,5-dihydroxyphenyl)methanone] | 82.3 ± 5.8% | 81.3 ± 3.5% | 87.7 ± 2.0% | in a dose-dependent manner | 18 ± 1.5% | 42 ± 4.2% | 46 ± 2.1% | 10.8 ± 0.4 s | 10.2 ± 0.4 s | 11.2 ± 0.4 s | 84.0 ± 3.2% | 82.3 ± 3.7% | 82.0 ± 15.0% | 2122 ± 265 s | – | 99.7 ± 3.2% | 97.7 ± 2.2% |
